From patent publication US11530244B2, “Cyclic polypeptides for PCSK9 inhibition” (priority 2018, dated 2022)
Starred links: 1 amine or outer side, 2 acyl side, 3 side chain; linkers in the order of their positions; H or OH if unused. Positions of bridges follow the written chain, without caps; N, C: chain ends. Non-standard residues stand in square brackets, D forms with d. Residues, ends and D or L forms follow the SMILES beside them. NHCH2(1,3-C6H4)CH2CO = O=C(Cc1cccc(CN[*:1])c1)[*:2]; Phe(4-COOH) = N[C@@H](Cc1ccc(C(=O)O)cc1)C(=O)O; Trp(5-F) = N[C@@H](Cc1c[nH]c2ccc(F)cc12)C(=O)O; X30 = COc1ccc(C[C@H](N[*:1])C(=O)[*:2])cc1Cl; mXylylene(5-F) = Fc1cc(C[*:1])cc(C[*:2])c1; Leu(3R-OH) = CC(C)[C@@H](O)[C@H](N)C(=O)O; Pro(cis-4-F) = O=C(O)[C@@H]1C[C@H](F)CN1; X4 = O=C(CCSCc1cccc(CSCCN[*:1])c1)[*:2]; mXylylene = c1cc(C[*:1])cc(C[*:2])c1; X34 = O=C(CCC1CCN([*:1])CC1)[*:2]; aThr = C[C@H](O)[C@H](N)C(=O)O; αMeP = C[C@@]1(C(=O)O)CCCN1; Dab = NCC[C@H](N)C(=O)O; X2 = O=C(C[*:2])[*:1]; Ava = NCCCCC(=O)O; Mpa = O=C(O)CCS

How the values were obtained:
[1] = biological target: human PCSK9 / human LDLR EGFa domain interaction (Homo sapiens (Human), UniProt Q8NBP7); assay: TR-FRET assay of inhibition of the PCSK9-LDLR protein-protein interaction; assay type: binding; conditions: TR-FRET, 20 nM human PCSK9, 20 nM human LDLR EGFa domain, 2 hours room temperature; read-out: IC50
In short: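 20 nM biotin-avitag PCSK9 + 20 nM His-LDLR EGFa; 5 nM Ulight-SA / 5 nM Eu-anti-His; 2 h RT; HEPES 50 mM, NaCl 150 mM, CaCl2 5 mM, 0.01% BSA, 0.01% P20. Half-maximal inhibition, 4-parameter fit.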

PCSK9 = PCSK9 (Homo sapiens (Human), UniProt Q8NBP7); assay: PCSK9 Alexa FRET Standard assay (displacement of AlexaFluor647 tagged cyclic peptide Reagent A); assay type: binding; conditions: PCSK9 Alexa FRET Standard assay, 0.5 nM PCSK9, 20 nM AF cyclic peptide Reagent A; read-out: IC50
In short: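 TR-FRET displacement: 0.5 nM biotinylated PCSK9 with 1.25 nM Strep-Eu and 20 nM AlexaFluor-tagged cyclic peptide (final) in 50 mM HEPES pH 7.4, 0.15 M NaCl, 5 mM CaCl2, 0.01% BSA, 0.01% P20, ≥2 h at room temperature. IC50 from sigmoidal fit, converted to Ki via peptide KD; falling Eu counts flagged false positives.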

PCSK9, sequence (Q8NBP7 153-692): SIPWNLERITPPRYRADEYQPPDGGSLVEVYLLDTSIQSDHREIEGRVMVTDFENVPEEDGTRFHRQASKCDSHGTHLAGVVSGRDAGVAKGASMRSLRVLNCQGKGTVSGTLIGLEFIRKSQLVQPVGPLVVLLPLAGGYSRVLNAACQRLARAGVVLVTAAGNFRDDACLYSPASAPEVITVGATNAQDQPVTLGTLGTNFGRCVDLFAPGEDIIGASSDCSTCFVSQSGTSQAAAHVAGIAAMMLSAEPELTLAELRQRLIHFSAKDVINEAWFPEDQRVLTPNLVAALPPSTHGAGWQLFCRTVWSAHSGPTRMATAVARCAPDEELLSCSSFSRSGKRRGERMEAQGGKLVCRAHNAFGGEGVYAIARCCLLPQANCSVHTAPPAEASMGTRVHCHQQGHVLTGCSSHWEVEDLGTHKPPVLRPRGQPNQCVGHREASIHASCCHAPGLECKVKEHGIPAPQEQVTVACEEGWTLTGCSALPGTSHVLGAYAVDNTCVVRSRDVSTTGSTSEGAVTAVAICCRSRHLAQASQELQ
human PCSK9 / human LDLR EGFa domain interaction, sequence (Q8NBP7 153-692): as above
human PCSK9 / human LDLR EGFa domain interaction, sequence (Q8NBP7 31-152 partner): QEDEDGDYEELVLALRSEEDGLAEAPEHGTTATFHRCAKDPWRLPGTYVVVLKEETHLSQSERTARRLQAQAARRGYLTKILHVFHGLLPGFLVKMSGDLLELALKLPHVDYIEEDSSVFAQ

Row | SMILES | IC50 [1] [µM] | IC50 (PCSK9) [µM]
1 | COc1ccc(C[C@@H]2NC(=O)[C@H](Cc3cnc[nH]3)NC(=O)[C@H](CC(=O)O)NC(=O)[C@H](Cc3c[nH]c4ccc(F)cc34)NC(=O)[C@H](Cc3c[nH]c4ccc(F)cc34)NC(=O)[C@H](C)NC(=O)CCC3CCN(CC3)C(=O)[C@H](CC(N)=O)NC(=O)[C@]3(C)CCCN3C2=O)cc1 [Compound 404] (cyclo(A[Trp(5-F)][Trp(5-F)]DHY(Me)[αMeP]N[X34])) | 0.1 to 1 | 1 to 12.1
2 | COc1ccc(C[C@@H]2NC(=O)[C@H]([C@H](C)OC)NC(=O)[C@@H]3C[C@H](F)CN3C(=O)[C@H](Cc3c[nH]c4ccc(F)cc34)NC(=O)[C@H](Cc3c[nH]c4ccc(F)cc34)NC(=O)[C@@H](C)NC(=O)[C@H](CCCCN)NC(=O)CCSCc3cccc(c3)CSC[C@@H](C(N)=O)NC(=O)[C@]3(C)CCCN3C2=O)cc1 [Compound 072] ([Mpa]K[dA][Trp(5-F)][Trp(5-F)][Pro(cis-4-F)][aThr](Me)Y(Me)[αMeP]C-NH2; linker 1-10 via mXylylene) | 0.1 to 1 | 1 to 12.1
3 | COc1ccc(C[C@@H]2NC(=O)[C@@H]3CC/C=C\CO[C@H]4C[C@@H](C(=O)N3)N(C4)C(=O)[C@H](Cc3c[nH]c4ccc(F)cc34)NC(=O)[C@H](Cc3c[nH]c4ccc(F)cc34)NC(=O)[C@@H](C)NC(=O)[C@H](CCCCN)NC(=O)CCSCc3cccc(c3)CSC[C@@H](C(N)=O)NC(=O)[C@]3(C)CCCN3C2=O)cc1 [Compound 509] | 0.1 to 1 | 0.00011 to 0.1
4 | COc1ccc(C[C@@H]2NC(=O)[C@H](Cc3cnc[nH]3)NC(=O)[C@H](CC(=O)O)NC(=O)[C@H](Cc3c[nH]c4ccc(F)cc34)NC(=O)[C@H](Cc3c[nH]c4ccc(F)cc34)NC(=O)[C@@H](C)NC(=O)[C@H](CCCCN)NC(=O)[C@@H](NC(C)=O)CCNC(=O)COc3ccc(cc3)C[C@@H](C(N)=O)NC(=O)[C@]3(C)CCCN3C2=O)cc1 [Compound 409] (Ac-[Dab]K[dA][Trp(5-F)][Trp(5-F)]DHY(Me)[αMeP]Y-NH2; linker 1-10 via X2) | 0.0001 to 0.1 | 0.1 to 1
5 | COc1ccc(C[C@@H]2NC(=O)[C@H](Cc3cnc[nH]3)NC(=O)[C@H](CC(=O)O)NC(=O)[C@H](Cc3c[nH]c4ccc(F)cc34)NC(=O)[C@H](Cc3c[nH]c4ccc(F)cc34)NC(=O)[C@@H](C)NC(=O)Cc3cccc(c3)CNC(=O)c3ccc(cc3)C[C@@H](C(N)=O)NC(=O)[C@]3(C)CCCN3C2=O)cc1 [Compound 390] ([NHCH2(1,3-C6H4)CH2CO][dA][Trp(5-F)][Trp(5-F)]DHY(Me)[αMeP][Phe(4-COOH)]-NH2; lactam N-9) | 0.0001 to 0.1 | 0.1 to 1
6 | COc1ccc(C[C@@H]2NC(=O)[C@H](Cc3cnc[nH]3)NC(=O)[C@H](CC(=O)O)NC(=O)[C@H](Cc3c[nH]c4ccc(F)cc34)NC(=O)[C@H](Cc3c[nH]c4ccc(F)cc34)NC(=O)[C@@H](C)NC(=O)CCCCNC(=O)c3ccc(cc3)C[C@@H](C(N)=O)NC(=O)[C@]3(C)CCCN3C2=O)cc1 [Compound 380] ([Ava][dA][Trp(5-F)][Trp(5-F)]DHY(Me)[αMeP][Phe(4-COOH)]-NH2; lactam N-9) | 21 to 50 | 21 to 50
7 | C[C@@H](O)[C@@H]1NC(=O)[C@@H]2CCCN2C(=O)[C@H](Cc2c[nH]c3ccc(F)cc23)NC(=O)[C@H](Cc2c[nH]c3ccc(F)cc23)NC(=O)CNC(=O)[C@H](CCCCN)NC(=O)CCSCc2cc(F)cc(c2)CSC[C@@H](C(N)=O)NC(=O)[C@]2(C)CCCN2C(=O)[C@H](Cc2ccc(O)cc2)NC1=O [Compound 043] ([Mpa]KG[Trp(5-F)][Trp(5-F)]PTY[αMeP]C-NH2; linker 1-10 via mXylylene(5-F)) | 0.1 to 1 | 0.1 to 1
8 | COc1ccc(C[C@@H]2NC(=O)[C@H](Cc3c[nH]cn3)NC(=O)[C@H](CC(=O)O)NC(=O)[C@H](Cc3c[nH]c4ccc(F)cc34)NC(=O)[C@H](Cc3c[nH]c4ccc(F)cc34)NC(=O)[C@@H](C)NC(=O)[C@H](CCCCN)NC(=O)CCSCc3cccc(c3)CSCCNC(=O)[C@]3(C)CCCN3C2=O)cc1Cl [Compound 386] (cyclo(DH[X30][αMeP][X4]K[dA][Trp(5-F)][Trp(5-F)])) | 0.0001 to 0.1 | 0.1 to 1
9 | CC(C)[C@@H](O)[C@@H]1NC(=O)[C@@H]2CCCN2C(=O)[C@H](Cc2c[nH]c3ccc(F)cc23)NC(=O)[C@H](Cc2c[nH]c3ccc(F)cc23)NC(=O)CNC(=O)[C@H](CCCCN)NC(=O)CCSCc2cccc(c2)CSC[C@@H](C(N)=O)NC(=O)[C@]2(C)CCCN2C(=O)[C@H](Cc2ccc(O)cc2)NC1=O [Compound 049] ([Mpa]KG[Trp(5-F)][Trp(5-F)]P[Leu(3R-OH)]Y[αMeP]C-NH2; linker 1-10 via mXylylene) | 0.1 to 1 | 0.1 to 1
